The NIST ThermoML archive (doi:10.1016/j.jct.2014.07.006)
Where “and” joins values, the source holds several entries; their conditions need not be identical. Identical values can stand only once. ± gives the expanded uncertainty stated by the source.

Assays:
[1] = molar heat capacity at constant pressure; settings: 298.15 K; 101.33 kPa; Crystal; Small sample (50 mg) DSC
[2] = for vapor or sublimation pressure: Liquid, Rate of evaporation; for Normal melting temperature: Crystal, DTA
[3] = Molar enthalpy of transition or fusion; settings: Crystal; DSC

With `NC(=O)c1ccccc1[N+](=O)[O-]` [2-nitrobenzamide] the “molar heat capacity at constant pressure” value [1] was 220.96 ± 10 J/K/mol, the “vapor or sublimation pressure” value ([2]; 485.02 K) was 0.5592 ± 0.071 kPa and the “vapor or sublimation pressure” value ([2]; 485.04 K) was 0.5538 ± 0.072 kPa. The “vapor or sublimation pressure” value ([2]; 485.08 K) was 0.5802 ± 0.068 kPa, the “vapor or sublimation pressure” value ([2]; 490.02 K) was 0.6682 ± 0.086 kPa and the “vapor or sublimation pressure” value ([2]; 490.06 K) was 0.6975 ± 0.088 kPa. For the same compound, the “vapor or sublimation pressure” value ([2]; 490.07 K) was 0.6914 ± 0.088 kPa, the “vapor or sublimation pressure” value ([2]; 495 K) was 0.8483 ± 0.11 kPa and the “vapor or sublimation pressure” value ([2]; 495.01 K) was 0.8342 ± 0.11 kPa. For the same compound, the “vapor or sublimation pressure” value ([2]; 495.05 K) was 0.8126 ± 0.1 kPa, the “vapor or sublimation pressure” value ([2]; 500.01 K) was 1.016 ± 0.13 kPa and the “vapor or sublimation pressure” value ([2]; 500.05 K) was 0.9934 ± 0.13 kPa. The “vapor or sublimation pressure” value ([2]; 500.08 K) was 1.036 ± 0.13 kPa, the “vapor or sublimation pressure” value ([2]; 505 K) was 1.234 ± 0.15 kPa and the “vapor or sublimation pressure” value ([2]; 505.03 K) was 1.212 ± 0.15 kPa. The “vapor or sublimation pressure” value ([2]; 505.05 K) was 1.264 ± 0.16 kPa, the “vapor or sublimation pressure” value ([2]; 510.02 K) was 1.487 ± 0.19 kPa and the “vapor or sublimation pressure” value ([2]; 510.04 K) was 1.531 ± 0.2 kPa. The “vapor or sublimation pressure” value ([2]; 510.07 K) was 1.503 ± 0.19 kPa, the “vapor or sublimation pressure” value ([2]; 515.02 K) was 1.877 ± 0.24 kPa and the “vapor or sublimation pressure” value ([2]; 515.05 K) was 1.829 ± 0.23 kPa. For the same compound, the “vapor or sublimation pressure” value ([2]; 515.08 K) was 1.822 ± 0.23 kPa, the “vapor or sublimation pressure” value ([2]; 520.02 K) was 2.233 ± 0.28 kPa and the “vapor or sublimation pressure” value ([2]; 520.05 K) was 2.227 ± 0.28 kPa. The “vapor or sublimation pressure” value ([2]; 520.07 K) was 2.203 ± 0.28 kPa, the “vapor or sublimation pressure” value ([2]; 525.01 K) was 2.884 ± 0.36 kPa and 2.697 ± 0.35 kPa and the “vapor or sublimation pressure” value ([2]; 525.06 K) was 2.718 ± 0.35 kPa. For the same compound, the “vapor or sublimation pressure” value ([2]; 530.02 K) was 3.274 ± 0.41 kPa, the “vapor or sublimation pressure” value ([2]; 530.03 K) was 3.315 ± 0.41 kPa and the “vapor or sublimation pressure” value ([2]; 530.07 K) was 3.29 ± 0.41 kPa. The “vapor or sublimation pressure” value ([2]; 535.02 K) was 3.942 ± 0.47 kPa, the “vapor or sublimation pressure” value ([2]; 535.03 K) was 3.951 ± 0.48 kPa and the “vapor or sublimation pressure” value ([2]; 535.06 K) was 3.957 ± 0.48 kPa. The Normal melting temperature [2] was 173.80 ± 0.4 °C and the “Molar enthalpy of transition or fusion” value [3] was 6.63 ± 0.146 kcal/mol.

With `NC(=O)c1cccc([N+](=O)[O-])c1` [3-nitrobenzamide] the “molar heat capacity at constant pressure” value [1] was 237.57 ± 10 J/K/mol, the “vapor or sublimation pressure” value ([2]; 485 K) was 0.7222 ± 0.096 kPa and the “vapor or sublimation pressure” value ([2]; 485.02 K) was 0.7094 ± 0.099 kPa. The “vapor or sublimation pressure” value ([2]; 485.06 K) was 0.6868 ± 0.1 kPa, the “vapor or sublimation pressure” value ([2]; 490.01 K) was 0.8798 ± 0.12 kPa and the “vapor or sublimation pressure” value ([2]; 490.02 K) was 0.868 ± 0.12 kPa. For the same compound, the “vapor or sublimation pressure” value ([2]; 490.06 K) was 0.84 ± 0.11 kPa, the “vapor or sublimation pressure” value ([2]; 495.01 K) was 1.068 ± 0.14 kPa and the “vapor or sublimation pressure” value ([2]; 495.02 K) was 1.057 ± 0.14 kPa. The “vapor or sublimation pressure” value ([2]; 495.05 K) was 1.021 ± 0.14 kPa, the “vapor or sublimation pressure” value ([2]; 500 K) was 1.286 ± 0.16 kPa and the “vapor or sublimation pressure” value ([2]; 500.01 K) was 1.284 ± 0.16 kPa. The “vapor or sublimation pressure” value ([2]; 500.04 K) was 1.246 ± 0.16 kPa, the “vapor or sublimation pressure” value ([2]; 505.03 K) was 1.495 ± 0.19 kPa and the “vapor or sublimation pressure” value ([2]; 505.07 K) was 1.556 ± 0.19 kPa. The “vapor or sublimation pressure” value ([2]; 505.08 K) was 1.557 ± 0.19 kPa, the “vapor or sublimation pressure” value ([2]; 510 K) was 1.794 ± 0.22 kPa and the “vapor or sublimation pressure” value ([2]; 510.04 K) was 1.867 ± 0.23 kPa. The “vapor or sublimation pressure” value ([2]; 510.06 K) was 1.872 ± 0.23 kPa, the “vapor or sublimation pressure” value ([2]; 515.02 K) was 2.228 ± 0.26 kPa and the “vapor or sublimation pressure” value ([2]; 515.03 K) was 2.226 ± 0.26 kPa. The “vapor or sublimation pressure” value ([2]; 515.06 K) was 2.146 ± 0.25 kPa, the “vapor or sublimation pressure” value ([2]; 520.02 K) was 2.545 ± 0.32 kPa and the “vapor or sublimation pressure” value ([2]; 520.06 K) was 2.654 ± 0.33 kPa. For the same compound, the “vapor or sublimation pressure” value ([2]; 520.07 K) was 2.633 ± 0.33 kPa, the “vapor or sublimation pressure” value ([2]; 525.02 K) was 3.119 ± 0.36 kPa and the “vapor or sublimation pressure” value ([2]; 525.03 K) was 3.091 ± 0.36 kPa. The “vapor or sublimation pressure” value ([2]; 525.06 K) was 3.009 ± 0.35 kPa, the “vapor or sublimation pressure” value ([2]; 530 K) was 3.525 ± 0.42 kPa and the “vapor or sublimation pressure” value ([2]; 530.04 K) was 3.638 ± 0.43 kPa. For the same compound, the “vapor or sublimation pressure” value ([2]; 530.06 K) was 3.596 ± 0.43 kPa, the “vapor or sublimation pressure” value ([2]; 535.01 K) was 4.145 ± 0.47 kPa and the “vapor or sublimation pressure” value ([2]; 535.03 K) was 4.119 ± 0.46 kPa. The “vapor or sublimation pressure” value ([2]; 535.06 K) was 4.215 ± 0.49 kPa, the Normal melting temperature [2] was 141.51 ± 0.42 °C and the “Molar enthalpy of transition or fusion” value [3] was 5.87 ± 0.134 kcal/mol.

For `NC(=O)c1ccc([N+](=O)[O-])cc1` [p-nitrobenzamide], the “molar heat capacity at constant pressure” value [1] was 212.65 ± 8.3 J/K/mol, the “vapor or sublimation pressure” value ([2]; 485.02 K) was 0.6396 ± 0.1 kPa and 0.6809 ± 0.094 kPa and the “vapor or sublimation pressure” value ([2]; 485.04 K) was 0.5788 ± 0.12 kPa. The “vapor or sublimation pressure” value ([2]; 485.1 K) was 0.6701 ± 0.097 kPa, the “vapor or sublimation pressure” value ([2]; 490.01 K) was 0.8437 ± 0.11 kPa and the “vapor or sublimation pressure” value ([2]; 490.03 K) was 0.8038 ± 0.11 kPa. For the same compound, the “vapor or sublimation pressure” value ([2]; 490.07 K) was 0.7398 ± 0.1 kPa, the “vapor or sublimation pressure” value ([2]; 490.08 K) was 0.7145 ± 0.1 kPa and the “vapor or sublimation pressure” value ([2]; 495.01 K) was 1.021 ± 0.12 kPa and 0.9548 ± 0.12 kPa. For the same compound, the “vapor or sublimation pressure” value ([2]; 495.05 K) was 0.9568 ± 0.12 kPa, the “vapor or sublimation pressure” value ([2]; 495.06 K) was 0.871 ± 0.11 kPa and the “vapor or sublimation pressure” value ([2]; 500.01 K) was 1.06 ± 0.13 kPa. The “vapor or sublimation pressure” value ([2]; 500.03 K) was 1.229 ± 0.15 kPa, the “vapor or sublimation pressure” value ([2]; 500.04 K) was 1.142 ± 0.14 kPa and the “vapor or sublimation pressure” value ([2]; 500.06 K) was 1.154 ± 0.14 kPa. For the same compound, the “vapor or sublimation pressure” value ([2]; 505 K) was 1.286 ± 0.17 kPa, the “vapor or sublimation pressure” value ([2]; 505.03 K) was 1.474 ± 0.18 kPa and the “vapor or sublimation pressure” value ([2]; 505.05 K) was 1.352 ± 0.17 kPa. For the same compound, the “vapor or sublimation pressure” value ([2]; 505.06 K) was 1.416 ± 0.18 kPa, the “vapor or sublimation pressure” value ([2]; 510 K) was 1.671 ± 0.22 kPa and the “vapor or sublimation pressure” value ([2]; 510.02 K) was 1.683 ± 0.22 kPa. The “vapor or sublimation pressure” value ([2]; 510.04 K) was 1.565 ± 0.21 kPa, the “vapor or sublimation pressure” value ([2]; 510.06 K) was 1.777 ± 0.23 kPa and the “vapor or sublimation pressure” value ([2]; 515.01 K) was 2.113 ± 0.25 kPa and 2.01 ± 0.24 kPa. The “vapor or sublimation pressure” value ([2]; 515.04 K) was 2.03 ± 0.24 kPa, the “vapor or sublimation pressure” value ([2]; 515.06 K) was 1.895 ± 0.23 kPa and the “vapor or sublimation pressure” value ([2]; 520.02 K) was 2.452 ± 0.33 kPa. The “vapor or sublimation pressure” value ([2]; 520.04 K) was 2.289 ± 0.32 kPa, the “vapor or sublimation pressure” value ([2]; 520.06 K) was 2.527 ± 0.34 kPa and the “vapor or sublimation pressure” value ([2]; 520.08 K) was 2.386 ± 0.33 kPa. The “vapor or sublimation pressure” value ([2]; 525.02 K) was 3.001 ± 0.35 kPa, the “vapor or sublimation pressure” value ([2]; 525.03 K) was 2.837 ± 0.34 kPa and the “vapor or sublimation pressure” value ([2]; 525.05 K) was 2.926 ± 0.35 kPa. The “vapor or sublimation pressure” value ([2]; 525.08 K) was 2.758 ± 0.33 kPa, the “vapor or sublimation pressure” value ([2]; 530.01 K) was 3.298 ± 0.41 kPa and the “vapor or sublimation pressure” value ([2]; 530.03 K) was 3.568 ± 0.43 kPa. The “vapor or sublimation pressure” value ([2]; 530.05 K) was 3.382 ± 0.41 kPa, the “vapor or sublimation pressure” value ([2]; 530.06 K) was 3.455 ± 0.42 kPa and the “vapor or sublimation pressure” value ([2]; 535.02 K) was 3.943 ± 0.44 kPa. For the same compound, the “vapor or sublimation pressure” value ([2]; 535.04 K) was 4.206 ± 0.52 kPa, the “vapor or sublimation pressure” value ([2]; 535.06 K) was 4.019 ± 0.46 kPa and the “vapor or sublimation pressure” value ([2]; 535.07 K) was 4.152 ± 0.5 kPa. For the same compound, the Normal melting temperature [2] was 200.33 ± 0.62 °C and the “Molar enthalpy of transition or fusion” value [3] was 7.19 ± 0.158 kcal/mol.

In the case of `c1ccc2c(c1)ccc1ccccc12` [phenanthrene], the “vapor or sublimation pressure” value ([2]; 400 K) is reported as 0.1505 ± 0.019 kPa [middle of 4 runs], the “vapor or sublimation pressure” value ([2]; 405 K) is reported as 0.18 ± 0.023 kPa [middle of 4 runs] and the “vapor or sublimation pressure” value ([2]; 410 K) is reported as 0.2218 ± 0.029 kPa [middle of 4 runs]. The “vapor or sublimation pressure” value ([2]; 415 K) was 0.2759 ± 0.036 kPa [middle of 4 runs], the “vapor or sublimation pressure” value ([2]; 420 K) was 0.3417 ± 0.045 kPa [middle of 4 runs] and the “vapor or sublimation pressure” value ([2]; 425 K) was 0.427 ± 0.056 kPa [middle of 4 runs]. The “vapor or sublimation pressure” value ([2]; 430 K) was 0.5304 ± 0.07 kPa [middle of 4 runs], the “vapor or sublimation pressure” value ([2]; 435 K) was 0.6576 ± 0.086 kPa [middle of 4 runs] and the “vapor or sublimation pressure” value ([2]; 440 K) was 0.8141 ± 0.11 kPa [middle of 4 runs]. For the same compound, the “vapor or sublimation pressure” value ([2]; 445 K) was 1.004 ± 0.13 kPa [middle of 4 runs], the “vapor or sublimation pressure” value ([2]; 450 K) was 1.235 ± 0.16 kPa [middle of 4 runs] and the “vapor or sublimation pressure” value ([2]; 455 K) was 1.516 ± 0.19 kPa [middle of 4 runs]. For the same compound, the “vapor or sublimation pressure” value ([2]; 460 K) was 1.844 ± 0.23 kPa [middle of 4 runs], the “vapor or sublimation pressure” value ([2]; 465 K) was 2.233 ± 0.28 kPa [middle of 4 runs] and the “vapor or sublimation pressure” value ([2]; 470 K) was 2.697 ± 0.33 kPa [middle of 4 runs]. For the same compound, the “vapor or sublimation pressure” value ([2]; 475 K) was 3.245 ± 0.4 kPa [middle of 4 runs] and the “vapor or sublimation pressure” value ([2]; 480 K) was 3.773 ± 0.45 kPa and 3.874 ± 0.48 kPa and 3.819 ± 0.47 kPa.
